# Measured values from article PMC5841303, “In silico screening for human norovirus antivirals reveals a novel non-nucleoside inhibitor of the viral polymerase” (Scientific Reports, 2018).
# pEC50, pIC50: −log10 of the molar value. Counter-ions that a name gives are not always drawn. Like-named read-outs stand apart in the source and are kept apart here.
# What was measured:
# human norovirus RdRp = settings: cited from earlier work
# [1] = design: method as in PMID 24316032, PMID 24616282; settings: cited from earlier work
# norovirus RdRp = assay: Counter-screen gel-shift RdRp assay (primed elongation of PE44-NoV template); assay type: biochemical, human norovirus; settings: 10 µM
# human norovirus replicon = test system: human norovirus replicon; design: method as in PMID 26392512; settings: cell culture; read-out: EC50 against the human norovirus replicon; cited from earlier work
# human norovirus = test system: human norovirus; design: method as in PMID 27210811; settings: read-out: EC50 against human norovirus in the B-cell culture system; cited from earlier work
smiles,measurement,setting,value
"CC1=N/C(=N/Nc2cc(S(=O)(=O)O)c3cc([N+](=O)[O-])cc(S(=O)(=O)O)c3c2)C(COP(=O)(O)O)=C(C=O)C1=O [PPNDS, pyridoxal-5′-phosphate-6-(2′-naphthylazo-6′-nitro-4′,8′-disulfonate) tetrasodium salt]",pIC50,"human norovirus RdRp; in vitro, read-out: IC50 against human norovirus RdRp activity",6.35
same,cell membrane permeability,[1],poor cell membrane permeability
"Nc1nc2c(ncn2[C@@H]2O[C@H](COP(=O)(O)OP(=O)(O)OP(=O)(O)O)C[C@H]2O)c(=O)[nH]1 [3′dGTP, 3′-deoxyguanosine-5′-triphosphate]","inhibition of transcription (gel-shift, positive control)",norovirus RdRp,complete inhibition
"C[C@@]1(O)[C@H](O)[C@@H](CO)O[C@H]1n1ccc(N)nc1=O [Compound 2CMC, 2′-C-methylcytidine]",pIC50,human norovirus RdRp; read-out: IC50 against human norovirus RdRp,5.60
same,pEC50,human norovirus replicon,5.09
same,pEC50,human norovirus,6.52
Cc1ccc(C(=O)Nc2ccc(S(=O)(=O)O)c3cc(S(=O)(=O)O)cc(S(=O)(=O)O)c23)cc1NC(=O)c1cccc(NC(=O)Nc2cccc(C(=O)Nc3cc(C(=O)Nc4ccc(S(=O)(=O)O)c5cc(S(=O)(=O)O)cc(S(=O)(=O)O)c45)ccc3C)c2)c1 [suramin],pIC50,"human norovirus RdRp; enzymatic assays, read-out: IC50 against human norovirus RdRp",7.57
same,cell membrane permeability,[1],poor cell membrane permeability
